Results reported in patent US11148991B2, “5-bromo-2-(alpha-hydroxypentyl)benzoic acid sodium salts in different crystal forms, and preparation method thereof” (priority 2013, dated 2021).

What was measured:
[1] = Solubility in water and methanol; format: physicochemical; settings: sodium salt
[2] = Stability in water and methanol solution; format: physicochemical; settings: sodium salt
[3] = tested on: rat MCAO model; test: Brain infarction volume and brain edema volume in rats with local brain ischemia (MCAO model); format: in vivo, Wistar rats
Description: Wistar rats (50% of rats is female and another 50% of rats is male); 5-bromo-2-(α-hydroxypentyl)benzoic acid sodium salt (BZP, in the form of amorphous form, crystal form A and crystal form B, prepared according to the present invention), prepared in double distilled water; […] is in the form of white powder, manufactured by Beijing Chemical Works.
Administration method: 5-bromo-2-(α-hydroxypentyl)benzoic acid sodium salt (BZP) was intravenously injected at one hour before MCAO, with the dosage of 12 mg/kg; 5-bromo-2-(α-hydroxypentyl)benzoic acid sodium salt (BZP) was used to intragastric administration at one hour before MCAO, with the dosage of 20 mg/kg. 2-(α-hydroxypentyl)benzoic acid potassium salt (NBP-K) was used as positive control, and its dosage (calculated in moles) is the same as that of 5-bromo-2-(α-hydroxypentyl)benzoic acid sodium salt, that is, the dosage of intravenous injection is 9.6 mg/kg, and the dosage of intragastric administration is 15.9 mg/kg.
Preparation of MCAO model: Establish a focal brain ischemia-reperfusion injury model by cerebral artery obstruction in rats with suture-occluded method. Rats were intraperitoneally injected with 10% chloral hydrate to anesthetize. Rats were fixed on back and the skin of neck center was incised. The left common carotid artery, external carotid artery, and internal carotid artery were subjected to blunt dissection. The pterygopalatine artery was ligated, only remaining cranial trunk of internal carotid artery; a prepared nylon rope (burning diameter 0.3 mm) was inserted via external carotid artery incision into the bifurcation of the […], and was pushed along the cranial direction of the internal carotid artery. […] This indicates one side of the middle cerebral artery occlusion model was completed. Sutured the incision, remained the end of nylon line out of the skin. For reperfusion, the nylon line was gently pulled out. If feel force of resistance, this indicates the end of nylon line has returned to the trunk of external carotid artery, thereby accomplishing reperfusion.
Determination of infarction volume: After being subjected to ischemia for 2 hours and reperfusion for 24 hours, the heads of rats were cut off. Forebrain was removed and cut into six pieces, each piece being 2 mm. The pieces were stained with TC, and incubated at 37° C. for 30 minutes. Normal issues were stained to be red, but the infarcted issues were stained to be white. Took photos with digital camera, and calculated the percentage of the infarcted area relative to the spherical area of brain by Photoshop.

[4] = tested on: Rat; test: Sub-acute toxicity, rat
[5] = Acute toxicity (LD50), rat; settings: in vivo
[6] = Acute toxicity (LD50), mouse; settings: in vivo
[7] = intragastric administration one hour before MCAO, BZP 20 mg/kg, NBP-K 15.9 mg/kg, sodium salt
[8] = intravenous injection one hour before MCAO, 12 mg/kg, sodium salt, 12 mg/kg
[9] = intravenous injection one hour before MCAO, BZP 12 mg/kg, NBP-K 9.6 mg/kg, ischemia 2 hours, reperfusion 24 hours, sodium salt
[10] = intravenous injection one hour before MCAO, BZP 12 mg/kg, NBP-K 9.6 mg/kg, sodium salt
[11] = intragastric administration one hour before MCAO, BZP 20 mg/kg, NBP-K 15.9 mg/kg
[12] = intravenous injection one hour before MCAO, 12 mg/kg

In the case of CCCCC(O)c1ccc(Br)cc1C(=O)[O-].[Na+] (mixture of isomers) [BZP (mixture), 5-bromo-2-(α-hydroxypentyl)benzoic acid sodium salt, reference compound], the “Solubility in methanol” value [1] is reported as 1580 mg/mL, the “Solubility in water” value [1] is reported as 2130 mg/mL and the “Stability” value ([2]; in methanol solution) is reported as greater than 12 h. For the same molecule, the “Stability” value ([2]; in water) was greater than 12 h.
In the case of CCCCC(O)c1ccc(Br)cc1C(=O)[O-].[Na+] (stereo not drawn) [5-bromo-2-(α-hydroxypentyl)benzoic acid sodium salt], the “Activity compared with 2-(α-hydroxypentyl)benzoic acid potassium salt” value ([3]; at the same dosage, conclusion in words) is reported as “obviously better than 2-(α-hydroxypentyl)benzoic acid potassium salt” and the “Effect on brain tissue injury induced by obstruction of cerebral arteries” value ([3]; rats, conclusion in words) is reported as “can obviously reduce brain tissue injury induced by obstruction of cerebral arteries”.
For CCCCC(O)c1ccc(Br)cc1C(=O)[O-].[Na+] (stereo not drawn) [BZP (crystal form A), 5-bromo-2-(α-hydroxypentyl)benzoic acid sodium salt], the “Edema (%)” value [3, 7] was 2.7 ± 1.30^aa** %, the “Infarction volume (%)” value [3, 7] was 7.13 ± 2.98 aa % and the “Inhibition of edema (%)” value [3, 7] was 87.55%. For the same molecule, the “Inhibition of infarction volume (%)” value [3, 7] was 86.65%, the “Edema (%)” value [3, 8] was 3.24 ± 4.11^aa* % and the “Inhibition of edema (%)” value [3, 8] was 81.28%. The “Infarction volume (%)” value [3, 9] was 4.54 ± 1.73 aa %, the “Inhibition of infarction volume (%)” value [3, 10] was 91.50% and the “Solubility in methanol” value ([1]; listed as BZP (Form A)) was 1800 mg/mL. The “Solubility in water” value ([1]; listed as BZP (Form A)) was 2360 mg/mL, the “Stability” value ([2]; in methanol solution, listed as BZP (Form A)) was greater than 24 h and the “Stability” value ([2]; in water, listed as BZP (Form A)) was greater than 20 h.
For CCCCC(O)c1ccc(Br)cc1C(=O)[O-].[Na+] (stereo not drawn) [BZP (crystal form B), 5-bromo-2-(α-hydroxypentyl)benzoic acid sodium salt], the “Edema (%)” value [3, 7] was 2.87 ± 1.56^aa** %, the “Infarction volume (%)” value [3, 7] was 7.13 ± 2.98^aa** % and the “Inhibition of edema (%)” value [3, 7] was 85.09%. For the same molecule, the “Inhibition of infarction volume (%)” value [3, 7] was 86.03%, the “Edema (%)” value [3, 8] was 4.20 ± 2.03a % and the “Inhibition of edema (%)” value [3, 8] was 78.71%. The “Infarction volume (%)” value [3, 9] was 4.76 ± 1.45 aa %, the “Inhibition of infarction volume (%)” value [3, 10] was 91.09% and the “Solubility in methanol” value ([1]; listed as BZP (Form B)) was 1630 mg/mL. For the same molecule, the “Solubility in water” value ([1]; listed as BZP (Form B)) was 2430 mg/mL, the “Stability” value ([2]; in methanol solution, listed as BZP (Form B)) was greater than 24 h and the “Stability” value ([2]; in water, listed as BZP (Form B)) was greater than 24 h.
For CCCCC(O)c1ccccc1C(=O)[O-].[K+] (stereo not drawn) [NBP-K, 2-(α-hydroxypentyl)benzoic acid potassium salt, reference compound], the “Edema (%)” value [3, 11] was 11.04 ± 1.48^aa** %, the “Infarction volume (%)” value [3, 11] was 22.28 ± 2.65^aa % and the “Inhibition of edema (%)” value [3, 11] was 42.65%. For the same molecule, the “Inhibition of infarction volume (%)” value [3, 11] was 58.3%, the “Edema (%)” value [3, 12] was 12.38 ± 1.29% and the “Inhibition of edema (%)” value [3, 12] was 9.37%. The “Inhibition of infarction volume (%)” value ([3]; intravenous injection one hour before MCAO, BZP 12 mg/kg, NBP-K 9.6 mg/kg) was 54.42%, the “Infarction volume (%)” value ([3]; intravenous injection one hour before MCAO, BZP 12 mg/kg, NBP-K 9.6 mg/kg, ischemia 2 hours, reperfusion 24 hours) was 24.35 ± 4.32^aa % and the “Sub-acute” value ([4]; ig) was greater than 20 mg/kg. The “Sub-acute” value ([4]; iv) was greater than 12 mg/kg, the LD50 ([5]; iv) was 230 mg/kg and the LD50 ([5]; po) was 623 mg/kg. The LD50 ([6]; iv) was 303 mg/kg and the LD50 ([6]; po) was 880 mg/kg.
